Reference: patent US9981997B2, “Chemical reagents for attaching affinity molecules on surfaces” (ARIZONA BOARD OF REGENTS ON BEHALF OF ARIZONA STATE …, priority 2013, dated 2018)
Where “and” joins values, the source holds several entries; their conditions need not be identical. Equal entries are not always repeated.

Assays:
[1] = target: T1, human α5β1 integrin (Homo sapiens, UniProt P05556+P08648); assay: AFM force measurement: unbinding of tip-tethered affinity molecule from integrin immobilized on mica; type: binding
T1 construct: purchased YO Proteins AB (Sweden)
T1 sequence (P08648 42-894 limits assumed): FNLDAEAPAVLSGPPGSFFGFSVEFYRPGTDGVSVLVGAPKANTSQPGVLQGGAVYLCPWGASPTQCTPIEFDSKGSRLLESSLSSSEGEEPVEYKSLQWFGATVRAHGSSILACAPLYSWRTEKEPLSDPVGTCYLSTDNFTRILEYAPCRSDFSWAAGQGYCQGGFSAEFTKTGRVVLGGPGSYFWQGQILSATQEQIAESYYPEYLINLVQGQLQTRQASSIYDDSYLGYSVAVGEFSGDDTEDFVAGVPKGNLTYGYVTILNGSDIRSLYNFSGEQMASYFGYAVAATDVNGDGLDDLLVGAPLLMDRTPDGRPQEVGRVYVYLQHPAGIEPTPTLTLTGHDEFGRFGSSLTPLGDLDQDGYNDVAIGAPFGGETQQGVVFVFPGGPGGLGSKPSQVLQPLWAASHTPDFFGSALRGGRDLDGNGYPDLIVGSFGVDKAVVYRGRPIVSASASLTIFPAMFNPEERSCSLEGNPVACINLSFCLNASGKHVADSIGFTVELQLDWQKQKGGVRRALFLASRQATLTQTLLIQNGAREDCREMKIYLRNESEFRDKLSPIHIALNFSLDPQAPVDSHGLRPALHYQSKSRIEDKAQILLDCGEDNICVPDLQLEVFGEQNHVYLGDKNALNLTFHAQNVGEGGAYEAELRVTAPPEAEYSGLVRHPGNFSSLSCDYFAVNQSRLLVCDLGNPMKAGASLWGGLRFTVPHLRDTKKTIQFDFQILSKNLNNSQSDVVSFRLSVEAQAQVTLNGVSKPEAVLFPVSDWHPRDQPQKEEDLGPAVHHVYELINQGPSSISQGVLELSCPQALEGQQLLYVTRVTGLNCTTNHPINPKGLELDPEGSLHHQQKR
T1 sequence (P08648 895-1049 partner limits assumed): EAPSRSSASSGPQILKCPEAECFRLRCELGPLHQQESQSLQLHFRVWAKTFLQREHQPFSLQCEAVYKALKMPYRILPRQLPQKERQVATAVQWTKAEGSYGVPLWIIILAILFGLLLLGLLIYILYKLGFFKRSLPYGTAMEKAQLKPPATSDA
T1 sequence (P05556 21-798): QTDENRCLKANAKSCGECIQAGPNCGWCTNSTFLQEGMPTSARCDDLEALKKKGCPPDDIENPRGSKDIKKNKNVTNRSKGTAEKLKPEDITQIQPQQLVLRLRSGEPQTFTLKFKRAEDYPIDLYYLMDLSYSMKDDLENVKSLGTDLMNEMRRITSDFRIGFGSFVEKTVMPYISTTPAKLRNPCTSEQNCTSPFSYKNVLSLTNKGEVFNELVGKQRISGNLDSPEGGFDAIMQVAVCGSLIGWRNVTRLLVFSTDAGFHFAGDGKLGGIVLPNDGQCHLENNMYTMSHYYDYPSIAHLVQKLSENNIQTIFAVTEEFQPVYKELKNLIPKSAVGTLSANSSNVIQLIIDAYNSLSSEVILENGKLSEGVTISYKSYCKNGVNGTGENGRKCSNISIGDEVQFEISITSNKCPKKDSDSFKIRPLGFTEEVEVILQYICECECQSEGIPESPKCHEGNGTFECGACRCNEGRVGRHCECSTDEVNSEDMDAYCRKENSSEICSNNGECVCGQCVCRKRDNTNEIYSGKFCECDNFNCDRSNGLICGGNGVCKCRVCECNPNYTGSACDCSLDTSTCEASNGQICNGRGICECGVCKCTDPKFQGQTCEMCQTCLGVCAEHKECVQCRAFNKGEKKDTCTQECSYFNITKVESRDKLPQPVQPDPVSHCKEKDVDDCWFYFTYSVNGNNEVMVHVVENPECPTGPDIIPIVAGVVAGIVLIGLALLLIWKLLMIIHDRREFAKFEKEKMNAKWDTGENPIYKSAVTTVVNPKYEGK
Text: (§1) The attachment chemistry was validated using the functionalized SiN tips to measure forces of affinity molecules unbinding from their respective protein cognates. The protein sample was immobilized on APS-modified mica substrate using glutaraldehyde as a crosslinker (for procedure, see Wang, et al. Biophys. J. 2002, 83, 3619-3625). Initially, about 1000 force-distance curves were collected from each of measurement experiments with either D-1b against thrombin or P-1b against integrin α5β1. The solid lines in Panel A and D of FIG. 14 show exemplary retracting force-distance curves used for data analysis, which accounts for more than one fourth of the collections. The selection was based on an assumption that a rupture directly related to unbinding of an affinity molecule from its protein cognate is likely to take place around the distance corresponding to the stretched length of a PEG linker (˜13.5 nm in this instance). A distance histogram was created from each data set (Panel B and E of FIG. 14). […] Ratios of the rupture events between these two regions were 1:1.2 for the TBA tip against the thrombin protein and 1:1.3 for the RGD tip against the integrin protein respectively. After finishing the initial measurements, a thrombin or integrin solution was injected to the flow cell accordingly, and then another set of force curves were collected to determine the specificity of unbinding (see, for example, Lee, et al. Micron 2007, 38, 446-461). A disappearance of the specific unbinding ruptures from the force-distance curves was anticipated because the interactions of the affinity molecule tethered to the tip with its cognates on the substrate were blocked by protein from the solution. In fact, force-distance curves were obtained appearing like the dotted lines in Panel A and D of FIG. 14. Overall, the ruptures around the longer distances were reduced to a great extent and those around the shorter distances remained (Panel C and F of FIG. 14) in comparison with those prior to blocking. The rupture ratios between these two regions were changed to 12.3:1 for the TBA tip against the thrombin modified surface and 12:1 for the RGD tip against the integrin modified surface.
(§2) AFM tips (a batch of four or five) were first immersed in ethanol for five minutes, dried with ultrapure argon, and then treated with ultraviolet-ozone in a Boekel UV cleaner for 15 minutes and oxygen plasma (medium power) in a Harrick Plasma Cleaner for 2 minutes. These tips were immediately placed in a petri dish, to which an aqueous solution of compound 3 (50 mM) was added. After one hour, the tips were taken out, rinsed with water thrice, and dried gently with nitrogen. […]

[2] = target: bovine serum albumin (BSA) (Bos taurus, UniProt P02769); assay: AFM force measurement: non-specific interaction with BSA immobilized mica; type: binding; settings: BSA on the substrate (non-specific control)
Sequence of bovine serum albumin (BSA) (P02769 25-607): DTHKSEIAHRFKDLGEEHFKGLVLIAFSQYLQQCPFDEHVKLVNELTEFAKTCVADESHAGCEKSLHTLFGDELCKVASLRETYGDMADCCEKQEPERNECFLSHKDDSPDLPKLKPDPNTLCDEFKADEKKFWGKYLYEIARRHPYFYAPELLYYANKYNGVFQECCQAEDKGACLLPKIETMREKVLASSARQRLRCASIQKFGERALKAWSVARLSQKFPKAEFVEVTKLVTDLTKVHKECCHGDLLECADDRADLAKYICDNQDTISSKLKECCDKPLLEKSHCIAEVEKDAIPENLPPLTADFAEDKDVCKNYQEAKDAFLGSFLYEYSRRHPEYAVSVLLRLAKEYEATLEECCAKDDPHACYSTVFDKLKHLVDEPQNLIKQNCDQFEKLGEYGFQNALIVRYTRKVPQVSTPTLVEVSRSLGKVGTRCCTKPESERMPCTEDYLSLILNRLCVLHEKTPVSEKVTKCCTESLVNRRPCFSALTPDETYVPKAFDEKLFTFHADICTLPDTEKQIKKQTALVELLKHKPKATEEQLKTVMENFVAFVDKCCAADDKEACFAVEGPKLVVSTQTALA
Text: (§3) Non-specific interactions between functionalized AFM tips with both bare and bovine serum albumin (BSA) immobilized mica substrates were examined. The functionalized AFM tips generally formed featureless force-distance curves on these surfaces. Only 6.1% of collected curves show unbinding ruptures from the nonspecific TBA-BSA interaction (median force 14.4 pN) and 5.6% from the nonspecific RGD-BSA interaction (median force 15.3 pN) around the expected distance, respectively. The functionalized tips interacted with the bare mica surfaces with even lower statistics and smaller unbinding forces.
Freshly cleaved mica sheets (1.5×2.0 cm^2) were immersed in an aqueous solution of APS (50 mM). After one hour, the mica sheets were taken out and rinsed thoroughly with water thrice. In a humid surrounding, an aqueous solution of glutaraldehyde (1 mM, 200 μL) was added on the APS mica sheet. After 10 minutes, the mica substrates were rinsed with water thrice, and then a solution of protein in a 1×PBS buffer (3 μL) was placed on it, incubated for one hour, and rinsed with the 1×PBS buffer thrice. In general, protein concentrations were made around 10 ng/μL for force measurements and 0.05 ng/μL for recognition imaging. It should be noted that integrin we used was a lyophilized product from a solution containing: 0.26 mg/ml α5β1, 20 mM Tris-HCl pH 7.5, 150 mM NaCl, 2 mM MgCl2, 0.2% Triton X-100, which was reconstituted by dissolving it in 1×PBS buffer.
(§4) An Agilent AFM 5500 (with inverted light microscope) system was used for the AFM experiments. Both force measurement and recognition imaging were carried out in 1×PBS buffer (pH 7.4). For force measurements, Veeco probes (Bicker, SiN tips) were used, having a force constant 0.05 N/m and a gold back coating, and the loading rate was 25000 pN/s.
(§5) Topography images, recognition images and force spectra were recorded using Agilent PicoView software. The force-distance curves were analyzed in PicoView, and the corresponding unbinding forces were plotted in the form of histograms and fitted into the Gaussian function using MathWorks-MATLAB.

[3] = AFM force measurement: non-specific interaction with bare mica; type: binding; settings: bare mica substrate
Text: as §3, §4, §5

[4] = Water contact angle of derivatized silicon oxide surfaces; type: physicochemical; settings: water on derivatized silicon oxide surface
Protocol: (§6) A silicon substrate (1×1 cm2) was cleaned thoroughly with ethanol, dried by nitrogen, and then treated with oxygen plasma for two minutes using Harrick Plasma Cleaner (medium power). APTES was deposited on the substrate using a vapor deposition method (H. Wang, et al. Biophys. J., 2002, 83, 3619-3625). The aminated substrate was immersed in a solution of compound 2 (1 mg/mL). NHS/EDC (1 mg each) and triethyl amine (5 μL) in dry dicholoromethane. After three hours, the substrates were taken out and rinsed with dry dichloromethane (twice) followed by ethanol (twice) and dried with argon.
(§7) A silicon substrate (1×1 cm2) was cleaned as described with respect to reactions 1-a nd 1-b, and then immersed in an aq. solution of silatrane derivative 3 (50 mM). After one hour, the substrates were taken out and rinsed five times with deionized water and dried with argon.
(§8) Contact angles were measured using Kruss EasyDrop. For the measurement, 2 μL of water droplets were deposited on different positions of a substrate placed on the sample plate and contact angles were measured in the video window of manufacturer's DSA software. Thicknesses of the monolayers were measured using Gaertner Scientific Corporation ellipsometer. For the thickness calculation, the refractive indices of both silicon oxide layers and organic layers were assumed to be 1.46 (T. Nguyen et al. J. Adhesion, 1995, 48, 169-194). Five different arbitrary positions on the substrate were chosen and the average value was taken. The thickness of the monolayer was determined by subtracting the silicon oxide thickness from the measured one.

[5] = Ellipsometric thickness of monolayers on silicon oxide; type: physicochemical; settings: organic layer on silicon oxide, ellipsometry
Protocol: as §6, §7, §8

[6] = Stability of linkers, NMR monitoring and storage; type: physicochemical; settings: for stability by NMR monitoring: pure form and in chloroform, room temperature, at least two days; for storage stability: stored at −78° C. for one year
Text: The molecular anchor (3) was synthesized simply by reacting APS (1) with 2-(cyclooct-2-yn-1-yloxy)acetic acid (2) in the presence of 1-ethyl-3-(3-dimethylaminopropyl)carbodiimide (EDC, FIG. 10). The desired product was separated as a white solid by silica gel chromatography with a yield of 60%. The molecular linker for RI (6a, FIG. 4) was synthesized starting from hexaethylene glycol. First, azido-(CH2CH2O)6-Ts (4, Ts=tosyl) was synthesized in a multi-gram scale (Loiseau, F. A. et al. J. Org. Chem. 2004, 69, 639-647; Svedhem, S.; et al. J. Org. Chem. 2001, 66, 4494-4503). The azido-(CH2CH2O)12—OH (5) was prepared in a 71% yield by reacting 4 with sodium hexaethylene glycoxide (3 times excess) that was generated in situ by treating hexaethylene glycol with sodium hydride. In presence of potassium t-butoxide, 5 reacted with divinyl sulfone to furnish the desired product 6a in a yield of 64%. In the same manner, the linker azido-(CH2CH2O)36-vinyl sulfone (6b) was synthesized by reacting azido-dPEG®—alcohol with divinyl sulfone in a yield close to that of 6a (FIG. 5). These two products were characterized with FTIR, NMR, and mass spectroscopy. Although vinyl sulfones may react with azides in presence of CuSO4 and sodium ascorbate, it was determined by NMR monitoring that 6a and 6b were stable both in its pure form and in chloroform at room temperature at least for two days. […] Maleimide is another reactive group that is functionally similar to vinyl sulfone in bioconjugation, but it may be less amenable to coexisting with azide because a [3+2]cycloaddition could spontaneously take place between these two functions in some circumstances. In addition, maleimide can undergo the thiol exchanges and ring hydrolysis (above pH 8), which may complicate outcomes of the conjugating reaction. Thus, vinyl sulfone was chosen as a Michael addition receptor of thiols in this attachment chemistry.

[7] = target: T2, human α-thrombin (Homo sapiens, UniProt P00734); assay: AFM force measurement: unbinding of tip-tethered affinity molecule from thrombin immobilized on mica; type: binding
T2 construct: protein cognates human α-thrombin and human α5β1-integrin immobilized on mica surfaces; purchased Abeam (so in the source)
Text: as §1, §2

[8] = tip blocked with integrin solution, integrin on mica
[9] = tip blocked with thrombin solution, thrombin on mica

Compound: cyclo(RGDfC)
- Unbinding events (%) ([1]; functionalized SiN tip against integrin on mica): 29.4%
- Unbinding force (pN) ([1]; functionalized SiN tip against integrin on mica, Gaussian fit, loading rate 25000 pN/s): 48.0 ± 27.8 pN
- Unbinding events (%) [1, 8]: 6.7%
- Unbinding force (pN) [1, 8]: 11.1 ± 10.7 pN
- Unbinding events (%) [2]: 5.6%
- Unbinding force (pN) [2]: 15.3 pN and 15.3 ± 14.4 pN
- Unbinding events (%) [3]: 2.5%
- Unbinding force (pN) [3]: 6.7 ± 4.0 pN

Compound: O=C(O)COC1C#CCCCCC1 (centres unmarked) [compound 2, 2-(cyclooct-2-yn-1-yloxy)acetic acid]
- Contact Angle (°) [4]: 76 °
- Thickness (Å) [5]: ~15.9 Å

Compound: C=CS(=O)(=O)CCOCCOCCOCCOCCOCCOCCOCCOCCOCCOCCOCCOCCN=[N+]=[N-] [6a, 1-Azido-35-(2-(vinylsulfonyl)ethoxy)-3n33^3-undecaoxapentatriacontane]
- stability by NMR monitoring [6]: stable
- storage stability [6]: no degradation has been observed

Compound: C=CS(=O)(=O)CCOCCOCCOCCOCCOCCOCCOCCOCCOCCOCCOCCOCCOCCOCCOCCOCCOCCOCCOCCOCCOCCOCCOCCOCCOCCOCCOCCOCCOCCOCCOCCOCCOCCOCCOCCOCCN=[N+]=[N-] [6b, 1-Azido-35-(2-(vinylsulfonyl)ethoxy)-3n105^3-pentatricontaoxaheptahectane]
- stability by NMR monitoring [6]: stable
- storage stability [6]: no degradation has been observed

Compound: 5′-GGTTGGTGTGGTTGG [TBA]
- Unbinding force (pN) ([7]; functionalized SiN tip against thrombin on mica, Gaussian fit of force histogram, loading rate 25000 pN/s): 80.2 ± 34.5 pN
- Unbinding events (%) ([7]; functionalized SiN tip against thrombin on mica, ruptures around the specific unbinding distance over total force curves): 26.5%
- Unbinding events (%) [7, 9]: 7.0%
- Unbinding force (pN) [7, 9]: 15.6 ± 12.9 pN
- Unbinding events (%) [2]: 6.1%
- Unbinding force (pN) [2]: 14.4 pN and 14.4 ± 9.4 pN
- Unbinding events (%) [3]: 3.0%
- Unbinding force (pN) [3]: 6.9 ± 3.8 pN

Compound: O=C(COC1C#CCCCCC1)NCCC[Si-]123OCC[N+]1(CCO2)CCO3 (centres unmarked) [compound 3, N-(3-(silatranyl)propyl)-2-(cyclooct-2-yn-1-yloxy)acetamide]
- Contact Angle (°) [4]: ~78 °
- Thickness (Å) [5]: 15.3 Å

Compound: CCO[Si](CCCN)(OCC)OCC [APTES, (3-Arninopropyl)triethoxysilane]
- Contact Angle (°) [4]: ~46 °
- Thickness (Å) [5]: about 7.3 Å
